For assay [1], the system named is U-87 MG human glioblastoma. In words: U87 MG CCK-8 proliferation assay. It counts as cell-based. The note with it: U-87 MG cells, read-out: U87MG CCK-8. The procedure: (§1) The following cancer cell lines were employed: A549 human lung carcinoma (ATCC, #CCL-185); BT-474 human breast carcinoma (ATCC, #HTB-20); MDA-MB-231 human breast adenocarcinoma (ATCC, #CRM−HTB-26); MDA-MB-468 human breast adenocarcinoma (ATCC, #HTB-132); MV-4-11 human acute myeloid leukemia (ATCC, #CRL-9591); and U-87 MG human glioblastoma (ATCC, #HTB-14). Cell lines were cultured essentially according to ATCC recommendations.
(§2) 3-fold serial dilutions of each test compound were prepared ranging from 20 μM to 1.02 nM.
(§3) % Inhibition=100−(D−B)/(S−B)*100%. • S: Absorbance of cells treated with DMSO • D: Absorbance of compound-treated cells • B: Absorbance of medium with DMSO without cells
Background: Tetrazolium dyes change colour on reduction, which living cells bring about.

The subject of assay [2] is MV-4-11 human acute myeloid leukemia. In words: MV-4-11 CCK-8 proliferation assay. It counts as cell-based. The settings on record: MV-4-11 cells, 72 hr. Here is the method:
as §1, §2, §3

Our source for the EC50 values is US20240124460A1, “METHODS AND COMPOSITIONS FOR TARGETED PROTEIN DEGRADATION” (Ranok Therapeutics (Hangzhou) Co. Ltd., priority 2020, published 2024).

Like-named read-outs stand apart in the source and are kept apart here.

In the case of `CCOc1cc(N2CCC(C(=O)NCCOCCOc3ccc(-n4c(O)nnc4-c4cc(CC)c(O)cc4O)cc3)CC2)ccc1Nc1ncc2c(n1)N(C)c1ccccc1C(=O)N2C` [Compound 014, 1-(4-((5,11-dimethyl-6-oxo-6,11-dihydro-5H-benzo[e]pyrimido[5,4-b][1,4]diazepin-2-yl)amino)-3-ethoxyphenyl)-N-(2-(2-(4-(3-(5-ethyl-2,4-dihydroxyphenyl)-5-hydroxy-4H-1,2,4-triazol-4-yl)phenoxy)ethoxy)ethyl)piperidine-4-carboxamide], the EC50 in assay [1] (Homo sapiens, U-87 MG, 72 h) was in the range of 0.1 to 1 µM; in assay [2] (Homo sapiens, MV4-11), 0.1 to 1 µM.

As to `CCOc1cc(N2CCC(C(=O)N3CCC(N4CCN(Cc5ccc(-n6c(O)nnc6-c6cc(C(C)C)c(O)cc6O)cc5F)CC4)CC3)CC2)ccc1Nc1ncc2c(n1)N(C)c1ccccc1C(=O)N2C` [Compound 033, 2-((4-(4-(4-(4-(4-(3-(2,4-dihydroxy-5-isopropylphenyl)-5-hydroxy-4H-1,2,4-triazol-4-yl)-2-fluorobenzyl)piperazin-1-yl)piperidine-1-carbonyl)piperidin-1-yl)-2-ethoxyphenyl)amino)-5,11-dimethyl-5,11-dihydro-6H-benzo[e]pyrimido[5,4-b][1,4]diazepin-6-one], the EC50 in assay [1] (Homo sapiens, U-87 MG, 72 h) was 0.1 to 1 µM.

`CCCc1cc(-c2nnc(O)n2-c2ccc(CN3CCN(C(=O)C4CCN(c5ccc(Nc6ncc7c(n6)N(C)c6ccccc6C(=O)N7C)c(OCC)c5)CC4)CC3)cc2)c(O)cc1O` [Compound 050, 2-((4-(4-(4-(4-(3-(2,4-dihydroxy-5-propylphenyl)-5-hydroxy-4H-1,2,4-triazol-4-yl)benzyl)piperazine-1-carbonyl)piperidin-1-yl)-2-ethoxyphenyl)amino)-5,11-dimethyl-5,11-dihydro-6H-benzo[e]pyrimido[5,4-b][1,4]diazepin-6-one]: the EC50 is 0.1 to 1 µM in assay [1] (Homo sapiens, U-87 MG, 72 h) and under 0.1 µM in assay [2] (Homo sapiens, MV4-11).

With `CCOc1cc(N2CCC(C(=O)NCCOCCOCCOc3ccc(Nc4cc(-n5nc(C(F)(F)F)c6c5CC(C)(C)CC6=O)ccc4C(N)=O)cc3)CC2)ccc1Nc1ncc2c(n1)N(C)c1ccccc1C(=O)N2C` [Compound 131, N-(2-(2-(2-(4-((2-carbamoyl-5-(6,6-dimethyl-4-oxo-3-(trifluoromethyl)-4,5,6,7-tetrahydro-1H-indazol-1-yl)phenyl)amino)phenoxy)ethoxy)ethoxy)ethyl)-1-(4-((5,11-dimethyl-6-oxo-6,11-dihydro-5H-benzo[e]pyrimido[5,4-b][1,4]diazepin-2-yl)amino)-3-ethoxyphenyl)piperidine-4-carboxamide], the EC50 in assay [1] (Homo sapiens, U-87 MG, 72 h) was over 1 µM; in assay [2] (Homo sapiens, MV4-11) it was 0.1 to 1 µM.

In the case of `CCOc1cc(N2CCC(C(=O)N3CCC(Oc4ccc(-c5ccc(NC(=O)c6ccc(OC)c(-c7cccc(OC)c7)c6)cc5)cc4)CC3)CC2)ccc1Nc1ncc2c(n1)N(C)c1ccccc1C(=O)N2C` [Compound 143, N-(4′-((1-(1-(4-((5,11-dimethyl-6-oxo-6,11-dihydro-5H-benzo[e]pyrimido[5,4-b][1,4]diazepin-2-yl)amino)-3-ethoxyphenyl)piperidine-4-carbonyl)piperidin-4-yl)oxy)-[1,1′-biphenyl]-4-yl)-3′,6-dimethoxy-[1,1′-biphenyl]-3-carboxamide], the EC50 in assay [1] (Homo sapiens, U-87 MG, 72 h) is over 1 µM; in assay [2] (Homo sapiens, MV4-11), over 1 µM.

As for `CCOc1cc(N2CCC(C(=O)N3CCC(COc4ccc(-c5ccc(NC(=O)c6ccc(OC)c(-c7cccc(OC)c7)c6)cc5)c(OCCCN(C)C)c4)CC3)CC2)ccc1Nc1ncc2c(n1)N(C)c1ccccc1C(=O)N2C` [Compound 151, N-(4′-((1-(1-(4-((5,11-dimethyl-6-oxo-6,11-dihydro-5H-benzo[e]pyrimido[5,4-b][1,4]diazepin-2-yl)amino)-3-ethoxyphenyl)piperidine-4-carbonyl)piperidin-4-yl)methoxy)-2′-(3-(dimethylamino)propoxy)-[1,1′-biphenyl]-4-yl)-3′,6-dimethoxy-[1,1′-biphenyl]-3-carboxamide], the EC50 in assay [1] (Homo sapiens, U-87 MG, 72 h) was over 1 µM.

Regarding `CCOc1cc(N2CCC(C(=O)N3CCC(CN4CCC(Oc5ccc(-c6ccc(NC(=O)c7ccc(OC)c(-c8cccc(OC)c8)c7)cc6)c(OCCCN(C)C)c5)CC4)CC3)CC2)ccc1Nc1ncc2c(n1)N(C)c1ccccc1C(=O)N2C` [Compound 153, N-(4′-((1-((1-(1-(4-((5,11-dimethyl-6-oxo-6,11-dihydro-5H-benzo[e]pyrimido[5,4-b][1,4]diazepin-2-yl)amino)-3-ethoxyphenyl)piperidine-4-carbonyl)piperidin-4-yl)methyl)piperidin-4-yl)oxy)-2′-(3-(dimethylamino)propoxy)-[1,1′-biphenyl]-4-yl)-3′,6-dimethoxy-[1,1′-biphenyl]-3-carboxamide], the EC50 in assay [2] (Homo sapiens, MV4-11) is over 1 µM.

Take `CCOc1cc(N2CCC(C(=O)N3CCC(CN4CCC(Oc5ccc(-c6ccc(NC(=O)c7ccc(OC)c(-c8cccc(OC)c8)c7)cc6)cc5)CC4)CC3)CC2)ccc1Nc1ncc2c(n1)N(C)c1ccccc1C(=O)N2C` [Compound 154, N-(4′-((1-((1-(1-(4-((5,11-dimethyl-6-oxo-6,11-dihydro-5H-benzo[e]pyrimido[5,4-b][1,4]diazepin-2-yl)amino)-3-ethoxyphenyl)piperidine-4-carbonyl)piperidin-4-yl)methyl)piperidin-4-yl)oxy)-[1,1′-biphenyl]-4-yl)-3′,6-dimethoxy-[1,1′-biphenyl]-3-carboxamide]: the EC50 in assay [2] (Homo sapiens, MV4-11) was over 1 µM.

For `CCOc1cc(N2CCC(C(=O)N3CCC(CN4CCC(Oc5ccc(-c6ccc(NC(=O)c7ccc(OC)c(-c8cccc(OC)c8)c7)cc6)c(OCCCN(C)C)c5)CC4)CC3)CC2)ccc1Nc1ncc2c(n1)N(S(C)(=O)=O)c1ccccc1C(=O)N2C` [Compound 155, N-(2′-(3-(dimethylamino)propoxy)-4′-((1-((1-(1-(3-ethoxy-4-((5-methyl-11-(methylsulfonyl)-6-oxo-6,11-dihydro-5H-benzo[e]pyrimido[5,4-b][1,4]diazepin-2-yl)amino)phenyl)piperidine-4-carbonyl)piperidin-4-yl)methyl)piperidin-4-yl)oxy)-[1,1′-biphenyl]-4-yl)-3′,6-dimethoxy-[1,1′-biphenyl]-3-carboxamide], the EC50 in assay [2] (Homo sapiens, MV4-11) is over 1 µM.

Consider `CCOc1cc(N2CCC(C(=O)N3CCC(CN4CCC(Oc5ccc(-c6ccc(NC(=O)c7ccc(OC)c(-c8cccc(OC)c8)c7)cc6)cc5)CC4)CC3)CC2)ccc1Nc1ncc2c(n1)N(S(C)(=O)=O)c1ccccc1C(=O)N2C` [Compound 156, N-(4′-((1-((1-(1-(3-ethoxy-4-((5-methyl-11-(methylsulfonyl)-6-oxo-6,11-dihydro-5H-benzo[e]pyrimido[5,4-b][1,4]diazepin-2-yl)amino)phenyl)piperidine-4-carbonyl)piperidin-4-yl)methyl)piperidin-4-yl)oxy)-[1,1′-biphenyl]-4-yl)-3′,6-dimethoxy-[1,1′-biphenyl]-3-carboxamide], for which the EC50 in assay [2] (Homo sapiens, MV4-11) is over 1 µM.

`CCOc1cc(N2CCC(C(=O)NCCCOc3ccc(-c4ccc(NC(=O)c5ccc(OC)c(-c6cccc(OC)c6)c5)cc4)c(OCCCN(C)C)c3)CC2)ccc1Nc1ncc2c(n1)N(S(C)(=O)=O)c1ccccc1C(=O)N2C` [Compound 157, N-(3-((4′-(3′,6-dimethoxy-[1,1′-biphenyl]-3-carboxamido)-2-(3-(dimethylamino)propoxy)-[1,1′-biphenyl]-4-yl)oxy)propyl)-1-(3-ethoxy-4-((5-methyl-11-(methylsulfonyl)-6-oxo-6,11-dihydro-5H-benzo[e]pyrimido[5,4-b][1,4]diazepin-2-yl)amino)phenyl)piperidine-4-carboxamide] had an EC50 in assay [2] (Homo sapiens, MV4-11) of over 1 µM.

As to `CCOc1cc(N2CCC(C(=O)N3CCC(COc4ccc(-c5ccc(NC(=O)c6ccc(OC)c(-c7cccc(OC)c7)c6)cc5)c(OCCCN(C)C)c4)CC3)CC2)ccc1Nc1ncc2c(n1)N(S(C)(=O)=O)c1ccccc1C(=O)N2C` [Compound 158, N-(2′-(3-(dimethylamino)propoxy)-4′-((1-(1-(3-ethoxy-4-((5-methyl-11-(methylsulfonyl)-6-oxo-6,11-dihydro-5H-benzo[e]pyrimido[5,4-b][1,4]diazepin-2-yl)amino)phenyl)piperidine-4-carbonyl)piperidin-4-yl)methoxy)-[1,1′-biphenyl]-4-yl)-3′,6-dimethoxy-[1,1′-biphenyl]-3-carboxamide], the EC50 in assay [2] (Homo sapiens, MV4-11) is over 1 µM.

Consider `CCOc1cc(N2CCC(C(=O)N3CCC(CN4CCN(Cc5ccc(-n6c(C(=O)N[C@H](C)C(F)(F)F)nnc6-c6cc(CC)c(O)cc6O)cc5)CC4)CC3)CC2)ccc1Nc1ncc2c(n1)N(S(C)(=O)=O)c1ccccc1C(=O)N2C` [Compound 176, (R)-4-(4-((4-((1-(1-(3-ethoxy-4-((5-methyl-11-(methylsulfonyl)-6-oxo-6,11-dihydro-5H-benzo[e]pyrimido[5,4-b][1,4]diazepin-2-yl)amino)phenyl)piperidine-4-carbonyl)piperidin-4-yl)methyl)piperazin-1-yl)methyl)phenyl)-5-(5-ethyl-2,4-dihydroxyphenyl)-N-(1,1,1-trifluoropropan-2-yl)-4H-1,2,4-triazole-3-carboxamide], for which the EC50 in assay [1] (72 hr) lay within 0.1 to 1 µM.

In turn, `CCOc1cc(N2CCC(C(=O)N3CCC(CN4CCN(Cc5ccc(-n6c(C(=O)N[C@@H](C)C(F)(F)F)nnc6-c6cc(CC)c(O)cc6O)cc5)CC4)CC3)CC2)ccc1Nc1ncc2c(n1)N(S(C)(=O)=O)c1ccccc1C(=O)N2C` [Compound 177, (S)-4-(4-((4-((1-(1-(3-ethoxy-4-((5-methyl-11-(methylsulfonyl)-6-oxo-6,11-dihydro-5H-benzo[e]pyrimido[5,4-b][1,4]diazepin-2-yl)amino)phenyl)piperidine-4-carbonyl)piperidin-4-yl)methyl)piperazin-1-yl)methyl)phenyl)-5-(5-ethyl-2,4-dihydroxyphenyl)-N-(1,1,1-trifluoropropan-2-yl)-4H-1,2,4-triazole-3-carboxamide] yielded an EC50 in assay [2] of under 0.1 µM.
